Where “and” joins values, the source holds several entries; their conditions need not be identical. Equal entries are not always repeated. Where two headings read alike, the source gives them in different places.
Assays:
[1] = human, in vivo; cited from earlier work
[2] = system: latent HIV in memory CD4 T cells from HIV-infected patients on suppressive cART; assay: Ex vivo activation of HIV transcription, cell-associated HIV RNA, memory CD4 T cells; format: cell-based; details: for HIV RNA avg: Figure 2A, 40 nM RMD, one value per donor
Protocol: (§1) To examine the kinetics of HIV induction, we analyzed cell-associated viral RNA levels at 6, 12, 24, and 48 hours after treatment initiation.
(§2) Lysates were filtered through a Qiashredder (Qiagen).

human HDAC-7 = molecular target: T1, human HDAC-7 (Homo sapiens, UniProt Q8WUI4); assay: HDAC inhibition assay; format: biochemical
T1 construct: purchased Reaction Biology Corporation (Malvern, PA)
Protocol: Determination of HDACi potency against individual HDAC enzymes was performed at Reaction Biology Corporation (Malvern, PA). In brief, human HDAC-1 to -11 enzymes were incubated with serial dilutions of HDACi and fluorogenic peptide substrates (50 µM) in a 96-well format assay. […] Fluorogenic peptide Boc-Lys(trifluoroacetyl)-AMC was used as a substrate for HDAC enzymes 4, 5, 7, and 9.

[3] = system: CD4+ T cells, CD8+ T cells and CD19+ B cells in PBMCs from HIV-infected subjects; assay: Cell activation analysis by flow cytometry, PBMC cultures; format: cell-based, human; details: 4-hour pulse of 15 or 40 nM RMD, any cell subset
Protocol: HIV latency reversing agents that would be suitable for the therapeutic use in vivo should not induce non-specific immune activation.
For cell activation analysis, either complete PBMC cultures or resting CD4+ T cells isolated from HIV-infected cART-suppressed patients were incubated with the tested agents under specified conditions and were stained with relevant antibodies. All antibodies were purchased from BD Biosciences and included Alexa Fluor 700-labeled antibody to CD4, APC-H7-labeled antibody to CD8, PE-Cy7 -labeled antibody to CD19, PE-labeled antibody to CD69, APC-labeled antibody to CD25, and V450-labeled antibody to HLA-DR. Live cells were gated by forward and side scatter and exclusion of the dead cells by Live/Dead Fixable Aqua Stain (Invitrogen). Marker staining was assessed by flow cytometry analysis on a LSR Fortessa with data processing using FlowJo software.

[4] = Human serum binding by equilibrium dialysis, HPLC/mass spectrometry; format: in vitro ADME; details: read-out: Human serum binding (free fraction)
Text: (DOCX) Click here for additional data file.

[5] = system: latently infected primary CD4 T cells; assay: Compound-associated cytotoxicity in latently infected cells (Cell Titer Glo); format: cell-based, human; details: continuous 48 hours, 50% cell viability reduction, three donors, mean ± SD
Protocol: (§3) Total peripheral blood mononuclear cells (PBMCs) were obtained from healthy HIV-negative donors by leukapheresis (AllCells, Inc, Emeryville, CA). Naive CD4+ T cells were purified by negative selection using EasySep magnetic beads (StemCells, Inc, Vancouver, Canada) and cultured in RPMI with 10% fetal bovine serum (FBS), penicillin/streptomycin, 1% nonessential amino acids (Life Technologies, Carlsbad, CA), 1% sodium pyruvate (Life Technologies) and 495 nM beta-mercaptoethanol (Sigma Aldrich, St. Louis, MO) in a 37°C, 5% CO2 incubator. Purified naive CD4+ T cells were activated by incubation with anti-CD3/CD28 magnetic Dynabeads (1 bead: 2 cells ratio, Life Technologies), 1 µg/ml anti-IL-4 (R&D Systems, Minneapolis, MN), 2 µg/ml anti-IL-12p70 antibodies (R&D Systems), and 10 ng/ml TGF-β (R&D Systems) for 3 days, [59]. Following the removal of anti-CD3/CD28 beads and antibodies, cells were maintained in 30 U/ml IL-2 (Life Technologies) for 2 days. Cells were then infected with NL4.3-Luc in the presence of 50 µg/ml DEAE for 3 hours. Cells were maintained in the continued presence of 30 U/ml IL-2 throughout the infection and subsequent rest period with culture medium with fresh IL-2 replaced every 2–3 days. Seven days post-infection, 20 µl of latently infected cells were dispensed into 384 well plates using a MicroFlo dispenser (Biotek Insturments, VT) at 10,000 cells/well containing 100 nl of compound solutions delivered by the Echo acoustic-based liquid dispenser (Labcyte, Sunnyvale, CA). After a 48-hour incubation, 16 µl/well BriteGlo (Promega, Madison, WI) was added and luminescence measured using the Envision plate reader (Perkin Elmer, Waltham, MA). Compound-associated cytotoxicity was determined in latently infected cells in parallel with the virus activation assay. Cells were incubated with compounds for 48 hours at 37°C, and cell viability was determined using Cell Titer Glo reagent (Promega).

[6] = as above; format: cell-based, human; details: human, latently infected (NL4.3-Luc) primary CD4+ T cells, continuous 48 hours, 50% cell viability reduction, three donors, mean ± SD
Protocol: as §3

[7] = system: latent HIV in resting CD4 T cells from HIV-infected patients on suppressive cART; format: cell-based; details: for HIV RNA avg: 40 nM RMD, one value per donor; for HIV RNA [copies/mil cells] avg: Figure 5
Protocol: as §1, §2

[8] = Clinical systemic exposure; format: in vivo, human

T1 sequence (Q8WUI4 whole entry): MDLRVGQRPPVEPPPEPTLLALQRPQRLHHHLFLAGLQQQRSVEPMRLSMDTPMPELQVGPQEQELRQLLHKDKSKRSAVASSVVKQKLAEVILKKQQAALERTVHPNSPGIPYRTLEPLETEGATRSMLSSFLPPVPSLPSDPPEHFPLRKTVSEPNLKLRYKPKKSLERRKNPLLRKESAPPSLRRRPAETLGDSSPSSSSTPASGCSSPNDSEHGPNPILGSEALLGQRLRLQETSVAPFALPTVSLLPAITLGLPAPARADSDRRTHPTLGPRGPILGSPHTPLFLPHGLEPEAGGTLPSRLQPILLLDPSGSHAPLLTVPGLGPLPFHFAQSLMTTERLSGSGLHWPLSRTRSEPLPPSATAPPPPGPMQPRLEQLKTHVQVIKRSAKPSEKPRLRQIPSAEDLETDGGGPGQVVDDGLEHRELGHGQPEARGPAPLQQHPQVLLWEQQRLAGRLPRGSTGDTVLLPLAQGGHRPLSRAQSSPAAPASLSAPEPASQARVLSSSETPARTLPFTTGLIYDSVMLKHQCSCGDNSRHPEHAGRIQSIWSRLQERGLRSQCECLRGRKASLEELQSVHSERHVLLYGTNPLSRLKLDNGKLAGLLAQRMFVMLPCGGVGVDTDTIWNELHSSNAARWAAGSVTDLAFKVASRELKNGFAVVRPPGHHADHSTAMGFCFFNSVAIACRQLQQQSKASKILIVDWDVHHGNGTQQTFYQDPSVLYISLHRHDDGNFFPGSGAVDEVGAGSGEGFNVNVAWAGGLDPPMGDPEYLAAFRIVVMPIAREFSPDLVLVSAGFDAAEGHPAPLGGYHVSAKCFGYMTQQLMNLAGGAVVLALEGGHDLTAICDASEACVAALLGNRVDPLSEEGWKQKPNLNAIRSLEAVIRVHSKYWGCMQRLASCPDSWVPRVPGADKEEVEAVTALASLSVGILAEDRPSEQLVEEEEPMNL

C/C=C1\NC(=O)[C@H]2CSSCC/C=C/[C@H](CC(=O)N[C@H](C(C)C)C(=O)N2)OC(=O)[C@H](C(C)C)NC1=O [RMD, romidepsin]
most common adverse reactions [1]: thrombocytopenia, neutropenia, lymphopenia, nausea, and fatigue | HIV RNA avg ([2]; 6hr): 164 copies/mil cells and 924 copies/mil cells and 4345 copies/mil cells and 5330 copies/mil cells and 714 copies/mil cells | HIV RNA avg ([2]; 12hr): 222 copies/mil cells and 562 copies/mil cells and 5634 copies/mil cells and 3147 copies/mil cells and 922 copies/mil cells | HIV RNA avg ([2]; 24hr): 702 copies/mil cells and 1193 copies/mil cells and 7541 copies/mil cells and 2530 copies/mil cells and 1320 copies/mil cells | HIV RNA avg ([2]; 48hr): 2153 copies/mil cells and 3839 copies/mil cells and 30568 copies/mil cells and 3060 copies/mil cells and 1406 copies/mil cells | increase in intracellular HIV RNA levels versus vehicle ([2]; memory CD4 T cells, 40 nM RMD for 4 hours, peak between 24 and 48 hours): 6 fold | IC50 (human HDAC-7): 3400 nM | expression of CD25 or HLA-DR [3]: did not lead to any changes | fraction unbound [4]: 0.08 | CC50 [5]: 107 ± 126 nM | CC50 at 48 h [6]: 100 nM | HIV RNA avg ([7]; Figure 2B, 6hr): 9642 copies/mil cells and 324 copies/mil cells and 14747 copies/mil cells and 6687 copies/mil cells and 2352 copies/mil cells | HIV RNA avg ([7]; Figure 2B, 12hr): 6663 copies/mil cells and 352 copies/mil cells and 13013 copies/mil cells and 9057 copies/mil cells and 2763 copies/mil cells | HIV RNA avg ([7]; Figure 2B, 24hr): 8902 copies/mil cells and 542 copies/mil cells and 17191 copies/mil cells and 14960 copies/mil cells and 4744 copies/mil cells | HIV RNA avg ([7]; Figure 2B, 48hr): 3882 copies/mil cells and 831 copies/mil cells and 21497 copies/mil cells and 14409 copies/mil cells and 7107 copies/mil cells | HIV RNA avg ([7]; Figure 4, 6 hours): 6481 copies/mil cells and 2385 copies/mil cells | HIV RNA avg ([7]; Figure 4, 24 hours): 15888 copies/mil cells and 7188 copies/mil cells | HIV RNA avg ([7]; Figure 4, 48 hours): 8834 copies/mil cells and 9481 copies/mil cells | HIV RNA [copies/mil cells] avg ([7]; 3.5 nM RMD, 6 hours, donor 6): 4270 copies/mil cells | HIV RNA [copies/mil cells] avg ([7]; 3.5 nM RMD, 6 hours, donor 7): 3321 copies/mil cells | HIV RNA [copies/mil cells] avg ([7]; 3.5 nM RMD, 6 hours, donor 8): 816 copies/mil cells | HIV RNA [copies/mil cells] avg ([7]; 3.5 nM RMD, 12 hours, donor 6): 3943 copies/mil cells | HIV RNA [copies/mil cells] avg ([7]; 3.5 nM RMD, 12 hours, donor 7): 2314 copies/mil cells | HIV RNA [copies/mil cells] avg ([7]; 3.5 nM RMD, 12 hours, donor 8): 526 copies/mil cells | HIV RNA [copies/mil cells] avg ([7]; 3.5 nM RMD, 24 hours, donor 6): 4673 copies/mil cells | HIV RNA [copies/mil cells] avg ([7]; 3.5 nM RMD, 24 hours, donor 7): 2633 copies/mil cells | HIV RNA [copies/mil cells] avg ([7]; 3.5 nM RMD, 24 hours, donor 8): 586 copies/mil cells | HIV RNA [copies/mil cells] avg ([7]; 3.5 nM RMD, 48 hours, donor 6): 3640 copies/mil cells | HIV RNA [copies/mil cells] avg ([7]; 3.5 nM RMD, 48 hours, donor 7): 4009 copies/mil cells | HIV RNA [copies/mil cells] avg ([7]; 3.5 nM RMD, 48 hours, donor 8): 769 copies/mil cells | HIV RNA [copies/mil cells] avg ([7]; 15 nM RMD, 6 hours, donor 6): 9276 copies/mil cells | HIV RNA [copies/mil cells] avg ([7]; 15 nM RMD, 6 hours, donor 7): 5400 copies/mil cells | HIV RNA [copies/mil cells] avg ([7]; 15 nM RMD, 6 hours, donor 8): 2254 copies/mil cells | HIV RNA [copies/mil cells] avg ([7]; 15 nM RMD, 12 hours, donor 6): 15172 copies/mil cells | HIV RNA [copies/mil cells] avg ([7]; 15 nM RMD, 12 hours, donor 7): 4260 copies/mil cells | HIV RNA [copies/mil cells] avg ([7]; 15 nM RMD, 12 hours, donor 8): 1826 copies/mil cells | HIV RNA [copies/mil cells] avg ([7]; 15 nM RMD, 24 hours, donor 6): 24438 copies/mil cells | HIV RNA [copies/mil cells] avg ([7]; 15 nM RMD, 24 hours, donor 7): 9787 copies/mil cells | HIV RNA [copies/mil cells] avg ([7]; 15 nM RMD, 24 hours, donor 8): 4270 copies/mil cells | HIV RNA [copies/mil cells] avg ([7]; 15 nM RMD, 48 hours, donor 6): 19207 copies/mil cells | HIV RNA [copies/mil cells] avg ([7]; 15 nM RMD, 48 hours, donor 7): 13754 copies/mil cells | HIV RNA [copies/mil cells] avg ([7]; 15 nM RMD, 48 hours, donor 8): 3470 copies/mil cells | HIV RNA [copies/mil cells] avg ([7]; 45 nM RMD, 6 hours, donor 6): 14747 copies/mil cells | HIV RNA [copies/mil cells] avg ([7]; 45 nM RMD, 6 hours, donor 7): 6687 copies/mil cells | HIV RNA [copies/mil cells] avg ([7]; 45 nM RMD, 6 hours, donor 8): 2352 copies/mil cells | HIV RNA [copies/mil cells] avg ([7]; 45 nM RMD, 12 hours, donor 6): 13013 copies/mil cells | HIV RNA [copies/mil cells] avg ([7]; 45 nM RMD, 12 hours, donor 7): 9057 copies/mil cells | HIV RNA [copies/mil cells] avg ([7]; 45 nM RMD, 12 hours, donor 8): 2763 copies/mil cells | HIV RNA [copies/mil cells] avg ([7]; 45 nM RMD, 24 hours, donor 6): 17191 copies/mil cells | HIV RNA [copies/mil cells] avg ([7]; 45 nM RMD, 24 hours, donor 7): 14960 copies/mil cells | HIV RNA [copies/mil cells] avg ([7]; 45 nM RMD, 24 hours, donor 8): 4744 copies/mil cells | HIV RNA [copies/mil cells] avg ([7]; 45 nM RMD, 48 hours, donor 6): 21497 copies/mil cells | HIV RNA [copies/mil cells] avg ([7]; 45 nM RMD, 48 hours, donor 7): 14409 copies/mil cells | HIV RNA [copies/mil cells] avg ([7]; 45 nM RMD, 48 hours, donor 8): 7107 copies/mil cells | induction of HIV transcription ([7]; resting CD4 T cells, 3.5 nM RMD for 4 hours): minimal induction | increase in intracellular HIV RNA levels versus vehicle ([7]; resting CD4 T cells, 40 nM RMD for 4 hours, peak between 24 and 48 hours): 6 fold | persistence of intracellular HIV RNA induction ([7]; resting CD4 T cells, pulse RMD 4 hours, VOR 24 hours, PNB 24 hours, 6 to 48 hours): persisted throughout the 48-hour incubation period | Free drug concentration, clinical systemic exposure ([8]; at Cmax, RMD 14 mg/m^2 i.v., VOR 400 mg p.o.): 56 nM | Fraction of clinical exposure ([8]; ratio of free drug concentration in cell culture media (RMD 40 nM, VOR 1,000 nM) and in serum of clinically treated patients): 39%
